{
  "source": "patent US20050090397A1",
  "about": "“Herbicides made from substituted aryl ketones” (priority 2001, published 2005)",
  "type_in_all_cases": "in vivo",
  "key": {"[1]": {"tested_on": "Lindernia pyxidari", "assay": "Greenhouse test in transplanted paddy rice: herbicidal damage to weed", "settings": "applied to water surface, rated 3 weeks after application vs untreated control", "excerpt": "(§1) To produce a preparation of active compound, 1 part by weight of an active compound combination according to the invention is mixed with the stated amount of solvent and, after addition of the stated amount of the emulsifier, diluted with water to the desired concentration.\n(§2) Vessels for planting (500 cm^2) are filled with soil from a rice field, and in each case 3 rice plants (cultivar: Nipponbare, 2-3-leaf stage, height: about 15 cm) are planted into the middle of vessels for planting. Into the same vessels for planting, seeds are sown. The soil in the vessels is kept moist. After two days, each vessel for planting is flooded to a water depth of 2-3 cm.\n(§3) Five days after the rice plants were transplanted, the amount of active compound is, in the preparation described above, applied to the surface of the water in the vessels for planting using a pipette. The water depth in the vessels for planting is maintained at 2-3 cm.\n(§4) 3 weeks after the application of active compound, the efficacy is rated in % damage in comparison to the untreated control.\n(§5) Active compounds, application rates and results are shown in Table A1 below, the abbreviations used in the table having the following meanings: • (I-65) N-[2,6-dichloro-3-[2,6-dioxocyclohexyl)-carbonyl]-phenyl]pyrrolidone-1-carboxamide • (I-2) N′-[2,6-dichloro-3-[(2,6-dioxo-cyclohexyl)-carbonyl]-phenyl]-N-methoxy-N-methyl-urea • (A) fentrazamide"}, "[2]": {"tested_on": "rice plants (cultivar: Nipponbare)", "assay": "Greenhouse test in transplanted paddy rice: crop damage", "settings": "rated 3 weeks after application", "excerpt": "as §1, §2, §3, §4, §5"}, "[3]": {"tested_on": "DOPJU", "assay": "Herbicidal damage to weed DOPJU (Table B2)", "settings": "application rate 50 g/ha", "excerpt": "as §1, §2, §3, §4, §5"}, "[4]": {"tested_on": "ROT/N", "assay": "Herbicidal damage to weed ROT/N (Tables B1, B3)", "settings": "application rate 50 g/ha"}},
  "data": [
    {"smiles": "CON(C)C(=O)Nc1c(Cl)ccc(C(=O)C2C(=O)CCCC2=O)c1Cl", "note": "[Example I-2, N′-[2,6-dichloro-3-[(2,6-dioxo-cyclohexyl)-carbonyl]-phenyl]-N-methoxy-N-methyl-urea]", "values": [
      {"measurement": "Damage to Lindernia pyxidari (%)", "setting": "[1]; application rate 200 g/ha", "result": 60, "unit": "%"},
      {"measurement": "Damage to rice (%)", "setting": "[2]; application rate 200 g/ha", "result": 0, "unit": "%"}
    ]},
    {"smiles": "CCN(C(=O)n1nnn(-c2ccccc2Cl)c1=O)C1CCCCC1", "note": "[(A), 4-(2-chloro-phenyl)-N-cyclohexyl-N-ethyl-4,5-dihydro-5-oxo-1H-tetrazol-1-carboxamide]", "values": [
      {"measurement": "Damage (to DOPJU) (%)", "setting": "[3]", "result": 50, "unit": "%"},
      {"measurement": "Damage (to ROT/N) (%)", "setting": "[4]; Table B1", "result": 60, "unit": "%"},
      {"measurement": "Damage to Lindernia pyxidari (%)", "setting": "[1]; application rate 150 g/ha", "result": 70, "unit": "%"},
      {"measurement": "Damage to rice (%)", "setting": "[2]; application rate 150 g/ha", "result": 0, "unit": "%"}
    ]},
    {"smiles": "CCC1(CC2(c3cccc(Cl)c3)CO2)C(=O)c2ccccc2C1=O", "note": "(stereo not shown) [B, 2-[2-(3-chloro-phenyl)-oxiranyl-methyl]-2-ethyl-1H-indene-1,3 (2H)-dione]", "values": [
      {"measurement": "Damage (to ROT/N) (%)", "setting": "[4]; Table B3", "result": 2, "unit": "%"}
    ]}
  ]
}
